Converted amounts (≈) assume the structure as drawn.
Experiments:
Rhinovirus Type 68 = experiment: Inhibition of cytopathic effect in WI-38 cell culture tubes, rhinovirus type 68; assay type: cell-based; details: Enterovirus, WI-38 cells, read-out: Inhibition grade, Rhinovirus Type 68; for inhibition at 25 µg/mL: 25 μg/ml
Procedure: (§1) The test compound was dissolved in an appropriate solvent (generally dimethyl sulfoxide) and incubated at 56° C. for at least 15 minutes and this solution was then used to prepare various test solutions having the desired concentration of test compound in preheated WI maintenance medium (49% Eagles, 49% medium 199, 2% fetal calf serum and antibiotics).
(§2) Triplicate cell culture tubes (WI-38 human embryonic lung cell culture tubes) were fed with 1 ml of medium containing the compound at specified concentrations and inoculated with 3-300 TCID50 (3-300 times the tissue culture infective dose 50, i.e., the dose required to infect 50% of the cell cultures tested). Simultaneous viral titrations were performed. The tissue cultures were supplemented with fresh medium when necessary (around 3-4 days) until viral titrations were completed.
(§3) The cell culture tubes were examined dialy for cytopathic effect. […] Comparisons were made at that time with the percentage of cell sheet destruction in tubes containing virus compound mixtures. Observed differences of 75% or more were graded "+", 74-50% as "±", and less than 50% as "-" inhibition.

Cox A21 = experiment: Single Oral Dose test in mice challenged IP with Cox A21; assay type: in vivo, Swiss male mice; details: 600 mg/kg P.O. 3 h after IP challenge; >3.84 significant (95% confidence level)
Method in brief: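 A single P.O. treatment with compound suspended in 0.5% hydroxypropyl methylcellulose was given 3 h after intraperitoneal Cox A21 challenge at a normally lethal dose in 8-12 g male Swiss mice. Survival followed 7-10 days; significance versus vehicle-treated infected mice by modified Mantel-Haenzel chi-square (>3.84, 95% level).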

rhinovirus type 5 (RV-5) = experiment: Tissue culture testing, rhinovirus type 5 in HeLa cells; assay type: cell-based; details: Enterovirus, 48 and 72 hours, NA = not active at the standard test conditions, read-out: RV-5: lowest concentration of the compound necessary to cause a 50 percent reduction in cytopathic effect
Procedure: Monolayered HeLa cells in 16 millimeter (mm) tissue culture dishes were treated with 1 ml of culture medium (Eagles medium supplemented with fetal calf serum) containing subject compound at an appropriate concentration or containing no compound at all. Culture media such as those described herein are more fully described in standard texts, as for example, Kuchler's Biochemical Methods in Cell Culture and Virology, Dowden, Hutchinson and Ross, Inc., Stroudsberg, PA (1977). Following treatment, cells were challenged with 0.05 ml of rhinovirus type 1A (RV-1A), rhinovirus type 2 (RV-2) or Coxsackie A21 virus (Cox A21) in culture medium. Some of the compounds were also tested against rhinovirus type 5 (RV-5), rhinovirus type 8 (RV-8) or rhinovirus type 64 (RV-64). Cell controls received no viruses.
^2 Lowest concentration of the compound (μg/ml) necessary to cause

Rhinovirus Type 6 = experiment: Inhibition of cytopathic effect in WI-38 cell culture tubes, rhinovirus type 6; assay type: cell-based; details: Enterovirus, WI-38 cells, read-out: Inhibition grade, Rhinovirus Type 6; for inhibition at 25 µg/mL: 25 μg/ml
Procedure: as §1, §2, §3

[1] = Cytotoxicity in tissue culture testing (HeLa monolayers); assay type: cell-based; details: human; HeLa cells; observed at 48 and 72 hours post-treatment; read-out: Cytotoxicity: concentration of the compound found to be toxic to the cell
Method in brief: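 Compound in Eagle's medium plus fetal calf serum was applied to monolayered HeLa cells; cultures were then infected with RV-1A, RV-2 or Coxsackie A21, with RV-5, RV-8 or RV-64 for some compounds. Controls received no compound or no virus.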

Hanks Untyped = experiment: Inhibition of cytopathic effect in WI-38 cell culture tubes, Hanks Untyped; assay type: cell-based, rhinovirus; details: Enterovirus, WI-38 cells, read-out: Inhibition grade, Hanks Untyped; for inhibition at 25 µg/mL: 25 μg/ml
Procedure: as §1, §2, §3

Rhinovirus Type 64 = experiment: Inhibition of cytopathic effect in WI-38 cell culture tubes, rhinovirus type 64; assay type: cell-based; details: Enterovirus, WI-38 cells, read-out: Inhibition grade, Rhinovirus Type 64; for inhibition at 25 µg/mL: 25 μg/ml
Procedure: as §1, §2, §3

Rhinovirus Type 29 = experiment: Inhibition of cytopathic effect in WI-38 cell culture tubes, rhinovirus type 29; assay type: cell-based; details: Enterovirus, WI-38 cells, read-out: Inhibition grade, Rhinovirus Type 29; for inhibition at 25 µg/mL: 25 μg/ml
Procedure: as §1, §2, §3

Rhinovirus Type 4 = experiment: Inhibition of cytopathic effect in WI-38 cell culture tubes, rhinovirus type 4; assay type: cell-based; details: Enterovirus, WI-38 cells, read-out: Inhibition grade, Rhinovirus Type 4; for inhibition at 25 µg/mL: 25 μg/ml
Procedure: as §1, §2, §3

[2] = tested on: 20 different rhinoviruses; experiment: Summary of WI-38 tissue culture testing against 20 rhinoviruses; assay type: cell-based; details: 3.0 μg/ml
Procedure: as §1, §2, §3

Compound | inhibition at 25 µg/mL (Rhinovirus Type 68) [%] | Single Oral Dose X^2 (chi-square, deaths vs virus control) (Cox A21) | EC50 (rhinovirus type 5 (RV-5)) [mg/L] | inhibition at 25 µg/mL (Rhinovirus Type 6) [%] | MCC [1] [µg/mL] | inhibition at 25 µg/mL (Hanks Untyped) [%] | inhibition at 25 µg/mL (Rhinovirus Type 64) [%] | inhibition at 25 µg/mL (Rhinovirus Type 29) [%] | inhibition at 25 µg/mL (Rhinovirus Type 4) [%] | also measured
CS(=O)(=O)c1ccc(Oc2ccc(C(=O)c3ccccc3)cc2)nc1 [Example 31, (4-((5-(methylsulfonyl)-2-pyridinyl)oxy)phenyl)phenylmethanone] | ≥ 75 | 19.383 | 6.25 (≈ 17.7 µM) | 50 to 74 | > 100 | ≥ 75 | 50 to 74 | ≥ 75 | ≥ 75 | –
CCS(=O)(=O)c1ccc(Oc2ccc(Cl)cc2)nc1 [Example 42, 2-(4-chlorophenoxy)-5-(ethylsulfonyl)pyridine] | – | 46.453 | – | – | ≥ 50 | – | – | – | – | inhibition at 12.5 µg/mL (Rhinovirus Type 68; 12.5 μg/ml): ≥ 75%; inhibition at 12.5 µg/mL (Rhinovirus Type 6; 12.5 μg/ml): ≥ 75%; inhibition at 12.5 µg/mL (Hanks Untyped; 12.5 μg/ml): ≥ 75%; inhibition at 12.5 µg/mL (Rhinovirus Type 64; 12.5 μg/ml): ≥ 75%; inhibition at 12.5 µg/mL (Rhinovirus Type 29; 12.5 μg/ml): ≥ 75%; inhibition at 12.5 µg/mL (Rhinovirus Type 4; 12.5 μg/ml): ≥ 75%
CCS(=O)(=O)c1ccc(Oc2ccc(C(=O)c3ccccc3)cc2)nc1 [Example 43, (4-((5-(ethylsulfonyl)-2-pyridinyl)oxy)phenyl)phenylmethanone] | – | 45.207 | 12.5 (≈ 34 µM) | – | 25 | – | – | – | – | inhibition at 3 µg/mL (Rhinovirus Type 68; 3.0 μg/ml): 50 to 74%; inhibition at 3 µg/mL (Rhinovirus Type 6; 3.0 μg/ml): < 50%; inhibition at 3 µg/mL (Hanks Untyped; 3.0 μg/ml): 50 to 74%; inhibition at 3 µg/mL (Rhinovirus Type 64; 3.0 μg/ml): < 50%; inhibition at 3 µg/mL (Rhinovirus Type 29; 3.0 μg/ml): ≥ 75%; inhibition of the multiplication of the majority of the 20 test rhinoviruses [2]: failed to inhibit the multiplication of the majority of the 20 test rhinoviruses; inhibition at 3 µg/mL (Rhinovirus Type 4; 3.0 μg/ml): < 50%
CCS(=O)(=O)c1ccc(Oc2ccc(Cl)c(Cl)c2)nc1 [Example 47, 2-(3,4-dichlorophenoxy)-5-(ethylsulfonyl)pyridine] | ≥ 75 | 25.587 | – | 50 to 74 | > 50 | ≥ 75 | ≥ 75 | ≥ 75 | ≥ 75 | –
